Assay results as given in US8952024B2, “Herbicidal pyrimidone derivatives” (E I du Pont de Nemours and Company, priority 2009, dated 2015).
Read-outs that look alike come from different tables or passages of the source.

Tests used:
Type in all cases: in vivo
[1] = tested on: large crabgrass (Digitaria sanguinalis); assay: Test B pre-/postemergence plant response; details: Preemergence
Procedure, shortened: (§1)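 Response scores were assigned visually after 13 to 15 days in a greenhouse, comparing treated pots with controls on a 0–100 scale where 100 denotes complete control. Preemergence treatments went onto freshly seeded loam/sand soil; postemergence treatments onto plants 2 to 18 cm tall.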

[2] = tested on: ragweed (common ragweed, Ambrosia elatior); assay: Test B pre-/postemergence plant response; details: for pest or weed control at 125 g/ha: 125 g ai/ha
Procedure, shortened: as §1

soybean (Glycine max) = assay: Test B pre-/postemergence plant response; details: for plant injury at 125 g/ha: 125 g ai/ha
Procedure, shortened: as §1

[3] = tested on: velvetleaf (Abutilon theophrasti); assay: Test B pre-/postemergence plant response; details: for pest or weed control at 125 g/ha: 125 g ai/ha
Procedure, shortened: as §1

wild oat (Avena fatua) = assay: Test B pre-/postemergence plant response; details: for pest or weed control at 31 g/ha: 31 g ai/ha; for pest or weed control at 125 g/ha: 125 g ai/ha
Procedure, shortened: as §1

[4] = tested on: woolly cupgrass (Eriochloa villosa); assay: Test B pre-/postemergence plant response; details: for pest or weed control at 31 g/ha: 31 g ai/ha; for pest or weed control at 125 g/ha: 125 g ai/ha
Procedure, shortened: as §1

[5] = tested on: yellow nutsedge (Cyperus esculentus); assay: Test B pre-/postemergence plant response; details: for pest or weed control at 31 g/ha: 31 g ai/ha; for pest or weed control at 125 g/ha: 125 g ai/ha
Procedure, shortened: as §1

[6] = tested on: canarygrass (Phalaris minor); assay: Test B postemergence plant response
Procedure, shortened: (§2)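 Plants at the 1- to 4-leaf stage (2 to 18 cm tall), grown in pots of peat moss/vermiculite medium with wetting agent and starter nutrients, received postemergence applications of test chemicals. After 13 to 15 days in a greenhouse, injury was rated visually against untreated controls on a 0 (no effect) to 100 (complete control) scale.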

[7] = tested on: chickweed (Stellaria media); assay: Test B postemergence plant response
Procedure, shortened: as §2

[8] = tested on: windgrass (Apera spica-venti); assay: Test B postemergence plant response
Procedure, shortened: as §2

[9] = tested on: winter barley (Hordeum vulgare); assay: Test B postemergence plant response
Procedure, shortened: as §2

[10] = 62 g ai/ha, postemergence, 0 is no effect, 100 is complete control, 13 to 15 days
[11] = Preemergence, 250 g ai/ha, 0 to 100 scale

## O=C1CCCC(O)=C1C(=O)c1cnc(-c2cccnc2)n(-c2ccccc2)c1=O [Compound 113, 5-[(2-hydroxy-6-oxo-1-cyclohexen-1-yl)carbonyl]-3-phenyl-2-(3-pyridinyl)-4(3H)-pyrimidone]
[1]; Digitaria sanguinalis, pre-emergence, 125 g ai/ha, scale 0 to 100, 0 no effect, 100 complete control, read-out: Plant response rating, Crabgrass, Large
  pest or weed control at 125 g/ha: 100%
[1]; 250 g ai/ha, 0 to 100 scale
  Crabgrass, Large plant response rating: 100
[2]; [10]
  Ragweed plant response rating (0 to 100 scale): 95
[2]; Ambrosia artemisiifolia, post-emergence, 360 h, Postemergence, scale 0 to 100 (0 no effect, 100 complete control), read-out: Plant response rating, Ragweed
  pest or weed control at 125 g/ha: 98%
[2]; Ambrosia artemisiifolia, post-emergence, 360 h, Postemergence, 250 g ai/ha, scale 0 to 100 (0 no effect, 100 complete control), read-out: Plant response rating, Ragweed
  pest or weed control at 250 g/ha: 98%
[2]; Ambrosia artemisiifolia, pre-emergence, 360 h, Preemergence, 31 g ai/ha, scale 0 to 100 (0 no effect, 100 complete control), read-out: Plant response rating, Ragweed
  pest or weed control at 31 g/ha: 55%
[2]; Ambrosia artemisiifolia, pre-emergence, 360 h, Preemergence, 62 g ai/ha, scale 0 to 100 (0 no effect, 100 complete control), read-out: Plant response rating, Ragweed
  pest or weed control at 62 g/ha: 90%
[2]; Ambrosia artemisiifolia, pre-emergence, 360 h, Preemergence, scale 0 to 100, 0 no effect, 100 complete control, read-out: Plant response rating, Ragweed
  pest or weed control at 125 g/ha: 95%
[2]; [11]
  Ragweed plant response rating: 98
Soybean (Glycine max); [10]
  Soybean plant response rating (0 to 100 scale): 98
Soybean (Glycine max); Glycine max, post-emergence, Postemergence, scale 0 to 100 (0 no effect, 100 complete control), read-out: Plant response rating, Soybean
  plant injury at 125 g/ha: 98%
Soybean (Glycine max); Glycine max, post-emergence, Postemergence, 250 g ai/ha, scale 0 to 100 (0 no effect, 100 complete control), read-out: Plant response rating, Soybean
  plant injury at 250 g/ha: 98%
Soybean (Glycine max); Glycine max, pre-emergence, Preemergence, 31 g ai/ha, scale 0 to 100 (0 no effect, 100 complete control), read-out: Plant response rating, Soybean
  plant injury at 31 g/ha: 0%
Soybean (Glycine max); Glycine max, pre-emergence, Preemergence, 62 g ai/ha, scale 0 to 100, 0 no effect, 100 complete control, read-out: Plant response rating, Soybean
  plant injury at 62 g/ha: 65%
Soybean (Glycine max); Glycine max, pre-emergence, Preemergence, scale 0 to 100, 0 no effect, 100 complete control, read-out: Plant response rating, Soybean
  plant injury at 125 g/ha: 85%
Soybean (Glycine max); [11]
  Soybean plant response rating: 90
[3]; [10]
  Velvetleaf plant response rating (0 to 100 scale): 95
[3]; Abutilon theophrasti, post-emergence, 360 h, Postemergence, scale 0 to 100 (0 no effect, 100 complete control), read-out: Plant response rating, Velvetleaf
  pest or weed control at 125 g/ha: 98%
[3]; Abutilon theophrasti, post-emergence, 360 h, Postemergence, 250 g ai/ha, scale 0 to 100 (0 no effect, 100 complete control), read-out: Plant response rating, Velvetleaf
  pest or weed control at 250 g/ha: 98%
[3]; Abutilon theophrasti, pre-emergence, 360 h, Preemergence, 31 g ai/ha, scale 0 to 100 (0 no effect, 100 complete control), read-out: Plant response rating, Velvetleaf
  pest or weed control at 31 g/ha: 80%
[3]; Abutilon theophrasti, pre-emergence, 360 h, Preemergence, 62 g ai/ha, scale 0 to 100 (0 no effect, 100 complete control), read-out: Plant response rating, Velvetleaf
  pest or weed control at 62 g/ha: 100%
[3]; Abutilon theophrasti, pre-emergence, 360 h, Preemergence, scale 0 to 100, 0 no effect, 100 complete control, read-out: Plant response rating, Velvetleaf
  pest or weed control at 125 g/ha: 100%
[3]; [11]
  Velvetleaf plant response rating: 100
Wild oat (Avena fatua); [10]
  Oat, Wild plant response rating (0 to 100 scale): 40
Wild oat (Avena fatua); Avena fatua, post-emergence, postemergence, scale 0 to 100, 0 is no effect, 100 is complete control, read-out: Plant response rating, Oat, Wild
  pest or weed control at 31 g/ha: 20%
Wild oat (Avena fatua); Avena fatua, post-emergence, Postemergence, scale 0 to 100 (0 no effect, 100 complete control), read-out: Plant response rating, Oat, Wild
  pest or weed control at 125 g/ha: 45%
Wild oat (Avena fatua); Avena fatua, post-emergence, Postemergence, 250 g ai/ha, scale 0 to 100 (0 no effect, 100 complete control), read-out: Plant response rating, Oat, Wild
  pest or weed control at 250 g/ha: 85%
Wild oat (Avena fatua); Avena fatua, pre-emergence, Preemergence, scale 0 to 100 (0 no effect, 100 complete control), read-out: Plant response rating, Oat, Wild
  pest or weed control at 31 g/ha: 0%
Wild oat (Avena fatua); Avena fatua, pre-emergence, Preemergence, 62 g ai/ha, scale 0 to 100 (0 no effect, 100 complete control), read-out: Plant response rating, Oat, Wild
  pest or weed control at 62 g/ha: 5%
Wild oat (Avena fatua); Avena fatua, pre-emergence, Preemergence, scale 0 to 100, 0 no effect, 100 complete control, read-out: Plant response rating, Oat, Wild
  pest or weed control at 125 g/ha: 20%
Wild oat (Avena fatua); [11]
  Oat, Wild plant response rating: 40
[4]; [10]
  Cupgrass, Woolly plant response rating (0 to 100 scale): 85
[4]; Eriochloa villosa, post-emergence, postemergence, scale 0 to 100, 0 is no effect, 100 is complete control, read-out: Plant response rating, Cupgrass, Woolly
  pest or weed control at 31 g/ha: 85%
[4]; Eriochloa villosa, post-emergence, Postemergence, scale 0 to 100 (0 no effect, 100 complete control), read-out: Plant response rating, Cupgrass, Woolly
  pest or weed control at 125 g/ha: 95%
[4]; Eriochloa villosa, post-emergence, Postemergence, 250 g ai/ha, scale 0 to 100 (0 no effect, 100 complete control), read-out: Plant response rating, Cupgrass, Woolly
  pest or weed control at 250 g/ha: 95%
[4]; Eriochloa villosa, pre-emergence, Preemergence, scale 0 to 100 (0 no effect, 100 complete control), read-out: Plant response rating, Cupgrass, Woolly
  pest or weed control at 31 g/ha: 5%
[4]; Eriochloa villosa, pre-emergence, Preemergence, 62 g ai/ha, scale 0 to 100, 0 no effect, 100 complete control, read-out: Plant response rating, Cupgrass, Woolly
  pest or weed control at 62 g/ha: 50%
[4]; Eriochloa villosa, pre-emergence, Preemergence, scale 0 to 100, 0 no effect, 100 complete control, read-out: Plant response rating, Cupgrass, Woolly
  pest or weed control at 125 g/ha: 85%
[4]; [11]
  Cupgrass, Woolly plant response rating: 95
[5]; [10]
  Nutsedge, Yellow plant response rating (0 to 100 scale): 75
[5]; Cyperus, post-emergence, postemergence, scale 0 to 100, 0 is no effect, 100 is complete control, read-out: Plant response rating, Nutsedge, Yellow
  pest or weed control at 31 g/ha: 65%
[5]; Cyperus, post-emergence, Postemergence, scale 0 to 100 (0 no effect, 100 complete control), read-out: Plant response rating, Nutsedge, Yellow
  pest or weed control at 125 g/ha: 75%
[5]; Cyperus, post-emergence, Postemergence, 250 g ai/ha, scale 0 to 100 (0 no effect, 100 complete control), read-out: Plant response rating, Nutsedge, Yellow
  pest or weed control at 250 g/ha: 75%
[5]; Cyperus, pre-emergence, Preemergence, scale 0 to 100 (0 no effect, 100 complete control), read-out: Plant response rating, Nutsedge, Yellow
  pest or weed control at 31 g/ha: 65%
[5]; Cyperus, pre-emergence, Preemergence, 62 g ai/ha, scale 0 to 100 (0 no effect, 100 complete control), read-out: Plant response rating, Nutsedge, Yellow
  pest or weed control at 62 g/ha: 80%
[5]; Cyperus, pre-emergence, Preemergence, scale 0 to 100, 0 no effect, 100 complete control, read-out: Plant response rating, Nutsedge, Yellow
  pest or weed control at 125 g/ha: 90%
[5]; [11]
  Nutsedge, Yellow plant response rating: 90
[6]; [10]
  Canarygrass plant response rating (0 to 100 scale): 90
[6]; Phalaris minor, post-emergence, 360 h, 31 g ai/ha, postemergence, scale 0 to 100, 0 is no effect, 100 is complete control, read-out: Plant response rating, Canarygrass
  pest or weed control at 31 g/ha: 65%
[6]; Phalaris minor, post-emergence, 360 h, Postemergence, 250 g ai/ha, scale 0 to 100 (0 no effect, 100 complete control), read-out: Plant response rating, Canarygrass
  pest or weed control at 250 g/ha: 90%
[7]; [10]
  Chickweed plant response rating (0 to 100 scale): 98
[7]; Stellaria media, post-emergence, 360 h, 31 g ai/ha, postemergence, scale 0 to 100, 0 is no effect, 100 is complete control, read-out: Plant response rating, Chickweed
  pest or weed control at 31 g/ha: 98%
[7]; Stellaria media, post-emergence, 360 h, Postemergence, 125 g ai/ha, scale 0 to 100 (0 no effect, 100 complete control), read-out: Plant response rating, Chickweed
  pest or weed control at 125 g/ha: 100%
[7]; Stellaria media, post-emergence, 360 h, Postemergence, 250 g ai/ha, scale 0 to 100 (0 no effect, 100 complete control), read-out: Plant response rating, Chickweed
  pest or weed control at 250 g/ha: 100%
[8]; [10]
  Windgrass plant response rating (0 to 100 scale): 30
[8]; Apera spica-venti, post-emergence, 360 h, Postemergence, 125 g ai/ha, scale 0 to 100 (0 no effect, 100 complete control), read-out: Plant response rating, Windgrass
  pest or weed control at 125 g/ha: 35%
[9]; [10]
  Barley plant response rating (0 to 100 scale): 5
[9]; Hordeum vulgare, post-emergence, 31 g ai/ha, postemergence, scale 0 to 100, 0 is no effect, 100 is complete control, read-out: Plant response rating, Barley
  plant injury at 31 g/ha: 0%
[9]; Hordeum vulgare, post-emergence, Postemergence, 125 g ai/ha, scale 0 to 100 (0 no effect, 100 complete control), read-out: Plant response rating, Barley
  plant injury at 125 g/ha: 5%
[9]; Hordeum vulgare, post-emergence, Postemergence, 250 g ai/ha, scale 0 to 100 (0 no effect, 100 complete control), read-out: Plant response rating, Barley
  plant injury at 250 g/ha: 20%
